Results published in patent US20090069370A1, “AZACYCLYLISOQUINOLINONE AND ISOINDOLINONE DERIVATIVES AS HISTAMINE-3 ANTAGONISTS” (Wyeth, priority 2007, published 2009).
Counter-ions that a name gives are not always drawn.

SMILES	melting point [°C]
COC(=O)c1ccc(Oc2ccc3c(c2)CCN(C2CCN(C4CCC4)CC2)C3=O)cc1 (as salt: hydrochloride) [Example 1, methyl 4-{[2-(1-Cyclobutylpiperidin-4-yl)-1-oxo-1,2,3,4-tetrahydroisoquinolin-6-yl]oxy}benzoate]	269 to 270
NC(=O)c1ccc(Oc2ccc3c(c2)CCN(C2CCN(C4CCC4)CC2)C3=O)cc1 (as salt: hydrochloride) [Example 3, 4-{[2-(1-cyclobutylpiperidin-4-yl)-1-oxo-1,2,3,4-tetrahydroiso-quinolin-6-yl]oxy}benzamide Hydrochloride]	309 to 310
CNC(=O)c1ccc(Oc2ccc3c(c2)CCN(C2CCN(C4CCC4)CC2)C3=O)cc1 (as salt: hydrochloride) [Example 4, 4-{[2-(1-Cyclobutylpiperidin-4-yl)-1-oxo-1,2,3,4-tetrahydroisoquinolin-6-yl]oxy}-N-methylbenzamide]	> 310
CCNC(=O)c1ccc(Oc2ccc3c(c2)CCN(C2CCN(C4CCC4)CC2)C3=O)cc1 (as salt: hydrochloride) [Example 5, 4-{[2-(1-Cyclobutylpiperidin-4-yl)-1-oxo-1,2,3,4-tetrahydroisoquinolin-6-yl]oxy}-N-ethylbenzamide]	317 to 318
CC(C)NC(=O)c1ccc(Oc2ccc3c(c2)CCN(C2CCN(C4CCC4)CC2)C3=O)cc1 (as salt: hydrochloride) [Example 6, 4-{[2-(1-Cyclobutylpiperidin-4-yl)-1-oxo-1,2,3,4-tetrahydroisoquinolin-6-yl]oxy}-N-isopropylbenzamide]	309 to 311
O=C(NC1CC1)c1ccc(Oc2ccc3c(c2)CCN(C2CCN(C4CCC4)CC2)C3=O)cc1 (as salt: hydrochloride) [Example 7, 4-{[2-(1-Cyclobutylpiperidin-4-yl)-1-oxo-1,2,3,4-tetrahydroisoquinolin-6-yl]oxy}-N-cyclopropylbenzamide]	307 to 309
O=C(NC1CCC1)c1ccc(Oc2ccc3c(c2)CCN(C2CCN(C4CCC4)CC2)C3=O)cc1 (as salt: hydrochloride) [Example 8, N-Cyclobutyl-4-{[2-(1-cyclobutylpiperidin-4-yl)-1-oxo-1,2,3,4-tetrahydroisoquinolin-6-yl]oxy}benzamide]	> 300
O=C(NC1CCCC1)c1ccc(Oc2ccc3c(c2)CCN(C2CCN(C4CCC4)CC2)C3=O)cc1 (as salt: hydrochloride) [Example 9, 4-{[2-(1-Cyclobutylpiperidin-4-yl)-1-oxo-1,2,3,4-tetrahydroisoquinolin-6-yl]oxy}-N-cyclopentylbenzamide]	> 300
CN(C)C(=O)c1ccc(Oc2ccc3c(c2)CCN(C2CCN(C4CCC4)CC2)C3=O)cc1 (as salt: hydrochloride) [Example 10, 4-{[2-(1-Cyclobutylpiperidin-4-yl)-1-oxo-1,2,3,4-tetrahydroisoquinolin-6-yl]oxy}-N,N-dimethylbenzamide]	262 to 264
CCN(CC)C(=O)c1ccc(Oc2ccc3c(c2)CCN(C2CCN(C4CCC4)CC2)C3=O)cc1 (as salt: hydrochloride) [Example 11, 4-{[2-(1-Cyclobutylpiperidin-4-yl)-1-oxo-1,2,3,4-tetrahydroisoquinolin-6-yl]oxy}-N,N-diethylbenzamide]	249 to 251
O=C(c1ccc(Oc2ccc3c(c2)CCN(C2CCN(C4CCC4)CC2)C3=O)cc1)N1CCCC1 (as salt: hydrochloride) [Example 12, 2-(1-Cyclobutylpiperidin-4-yl)-6-[4-(pyrrolidin-1-ylcarbonyl)phenoxy]-3,4-dihydroisoquinolin-1(2H)-one]	253 to 255
NC(=O)c1ccc(COc2ccc3c(c2)CCN(C2CCN(C4CCC4)CC2)C3=O)cc1 (as salt: hydrochloride) [Example 15, 4-({[2-(1-cyclobutylpiperidin-4-yl)-1-oxo-1,2,3,4-tetrahydroiso-quinolin-6-yl]oxy}methyl)benzamide acid hydrochloride]	292 to 293
CNC(=O)c1ccc(COc2ccc3c(c2)CCN(C2CCN(C4CCC4)CC2)C3=O)cc1 (as salt: hydrochloride) [Example 16, 4-({[2-(1-Cyclobutylpiperidin-4-yl)-1-oxo-1,2,3,4-tetrahydroisoquinolin-6-yl]oxy}methyl)-N-methylbenzamide]	302 to 303
CCNC(=O)c1ccc(COc2ccc3c(c2)CCN(C2CCN(C4CCC4)CC2)C3=O)cc1 (as salt: hydrochloride) [Example 17, 4-({[2-(1-Cyclobutylpiperidin-4-yl)-1-oxo-1,2,3,4-tetrahydroisoquinolin-6-yl]oxy}methyl)-N-ethylbenzamide]	307 to 309
CN(C)C(=O)c1ccc(COc2ccc3c(c2)CCN(C2CCN(C4CCC4)CC2)C3=O)cc1 (as salt: hydrochloride) [Example 18, 4-({[2-(1-Cyclobutylpiperidin-4-yl)-1-oxo-1,2,3,4-tetrahydroisoquinolin-6-yl]oxy}methyl)-N,N-dimethylbenzamide]	292 to 294
O=C(NC1CCC1)c1ccc(COc2ccc3c(c2)CCN(C2CCN(C4CCC4)CC2)C3=O)cc1 (as salt: hydrochloride) [Example 19, N-Cyclobutyl-4-({[2-(1-cyclobutylpiperidin-4-yl)-1-oxo-1,2,3,4-tetrahydroisoquinolin-6-yl]oxy}methyl)benzamide]	286 to 288
O=C(c1ccc(COc2ccc3c(c2)CCN(C2CCN(C4CCC4)CC2)C3=O)cc1)N1CCCC1 (as salt: hydrochloride) [Example 20, 2-(1-Cyclobutylpiperidin-4-yl)-6-{[4-(pyrrolidin-1-ylcarbonyl)benzyl]oxy}-3,4-dihydroisoquinolin-1(2H)-one]	284 to 286
O=C(NC1CCCC1)c1ccc(COc2ccc3c(c2)CCN(C2CCN(C4CCC4)CC2)C3=O)cc1 (as salt: hydrochloride) [Example 21, 4-({[2-(1-Cyclobutylpiperidin-4-yl)-1-oxo-1,2,3,4-tetrahydroisoquinolin-6-yl]oxy}methyl)-N-cyclopentylbenzamide]	289 to 291
N#Cc1ccc(-c2ccc3c(c2)CN(C2CCNCC2)C3=O)cc1 (as salt: hydrochloride) [Example 22, 4-(1-oxo-2-piperidin-4-yl-2,3-dihydro-1H-isoindol-5-yl)benzonitrile hydrochloride]	105 to 106
CN1CCC(N2Cc3cc(-c4ccc(C#N)cc4)ccc3C2=O)CC1 (as salt: hydrochloride) [Example 23]	322 to 323
CCN1CCC(N2Cc3cc(-c4ccc(C#N)cc4)ccc3C2=O)CC1 (as salt: hydrochloride) [Example 24, 4-[2-(1-Ethylpiperidin-4-yl)-1-oxo-2,3-dihydro-1H-isoindol-5-yl]benzonitrile]	> 300
CCCN1CCC(N2Cc3cc(-c4ccc(C#N)cc4)ccc3C2=O)CC1 (as salt: hydrochloride) [Example 25, 4-[1-Oxo-2-(1-propylpiperidin-4-yl)-2,3-dihydro-1H-isoindol-5-yl]benzonitrile]	300 to 302
N#Cc1ccc(-c2ccc3c(c2)CN(C2CCN(CC4CC4)CC2)C3=O)cc1 (as salt: hydrochloride) [Example 26, 4-{2-[1-(Cyclopropylmethyl)piperidin-4-yl]-1-oxo-2,3-dihydro-1H-isoindol-5-yl}benzonitrile]	309 to 310
